Assay results reported in ChEMBL document CHEMBL1201862, “PubChem BioAssay data set” (2004).
The source made the active and inactive calls.

Tests used:
cells [1] = assay type: functional
[2] = A Cell Based Secondary Assay to Explore Cytotoxicity in THP-1 Cells of Compounds that Modulate Mycobacterium tuberculosis in Media Containing Glycerol versus Media without Glycerol (2).; assay type: functional
Nonstructural protein 1 = Nonstructural protein 1 (Influenza A virus, UniProt Q194T2); assay type: functional, Influenza A virus (A/California/07/2009(H1N1))
Insulin-degrading enzyme [3] = target: T1, Insulin-degrading enzyme (Homo sapiens, UniProt P14735); assay: activators of recombinant IDE enzyme, dose response, counter-screen for IDE activator project, biochemical, fluorescence polarization (AID 588681)
T1 sequence (P14735 whole entry): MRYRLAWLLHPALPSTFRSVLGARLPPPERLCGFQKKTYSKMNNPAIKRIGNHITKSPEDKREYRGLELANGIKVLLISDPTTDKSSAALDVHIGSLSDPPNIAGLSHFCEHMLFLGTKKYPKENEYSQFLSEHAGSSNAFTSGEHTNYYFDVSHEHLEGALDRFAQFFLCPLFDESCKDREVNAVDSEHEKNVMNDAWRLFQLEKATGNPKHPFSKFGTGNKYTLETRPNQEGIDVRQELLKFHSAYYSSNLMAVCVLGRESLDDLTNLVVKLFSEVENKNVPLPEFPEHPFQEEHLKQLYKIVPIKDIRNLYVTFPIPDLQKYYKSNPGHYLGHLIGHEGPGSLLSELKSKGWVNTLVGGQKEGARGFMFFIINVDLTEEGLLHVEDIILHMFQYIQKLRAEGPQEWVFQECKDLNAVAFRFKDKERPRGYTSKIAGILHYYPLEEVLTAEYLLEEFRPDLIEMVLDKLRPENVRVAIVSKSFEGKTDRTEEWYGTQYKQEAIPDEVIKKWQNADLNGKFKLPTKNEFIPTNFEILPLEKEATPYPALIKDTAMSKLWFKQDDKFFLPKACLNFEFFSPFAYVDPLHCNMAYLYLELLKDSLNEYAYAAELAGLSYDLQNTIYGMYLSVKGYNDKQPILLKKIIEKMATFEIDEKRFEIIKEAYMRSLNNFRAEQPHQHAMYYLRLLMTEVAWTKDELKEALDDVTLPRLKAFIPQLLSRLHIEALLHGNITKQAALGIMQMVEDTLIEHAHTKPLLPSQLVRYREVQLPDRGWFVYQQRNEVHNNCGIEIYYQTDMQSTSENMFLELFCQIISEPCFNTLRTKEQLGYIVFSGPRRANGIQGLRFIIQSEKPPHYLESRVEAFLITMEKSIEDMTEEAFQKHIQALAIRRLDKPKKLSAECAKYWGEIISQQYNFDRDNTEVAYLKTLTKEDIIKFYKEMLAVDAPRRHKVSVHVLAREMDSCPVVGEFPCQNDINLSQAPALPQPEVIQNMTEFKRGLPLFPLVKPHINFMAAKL

Insulin-degrading enzyme [4] = target: T1, Insulin-degrading enzyme; assay: activators of endogenous IDE in HEK cells, dose response, cell-based, fluorescence polarization (AID 588439); assay type: functional
[5] = target: Ras and Rab interactor 1/Tyrosine-protein kinase ABL1 (Homo sapiens, UniProt P00519+Q13671); assay type: functional;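 note: biochemical TR-FRET dose-response test measuring inhibition of binding between Rin1 and Abl proteins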
[6] = target: T2, Histone-lysine N-methyltransferase NSD2 (Homo sapiens, UniProt O96028); assay type: biochemical
T2 sequence (O96028 whole entry): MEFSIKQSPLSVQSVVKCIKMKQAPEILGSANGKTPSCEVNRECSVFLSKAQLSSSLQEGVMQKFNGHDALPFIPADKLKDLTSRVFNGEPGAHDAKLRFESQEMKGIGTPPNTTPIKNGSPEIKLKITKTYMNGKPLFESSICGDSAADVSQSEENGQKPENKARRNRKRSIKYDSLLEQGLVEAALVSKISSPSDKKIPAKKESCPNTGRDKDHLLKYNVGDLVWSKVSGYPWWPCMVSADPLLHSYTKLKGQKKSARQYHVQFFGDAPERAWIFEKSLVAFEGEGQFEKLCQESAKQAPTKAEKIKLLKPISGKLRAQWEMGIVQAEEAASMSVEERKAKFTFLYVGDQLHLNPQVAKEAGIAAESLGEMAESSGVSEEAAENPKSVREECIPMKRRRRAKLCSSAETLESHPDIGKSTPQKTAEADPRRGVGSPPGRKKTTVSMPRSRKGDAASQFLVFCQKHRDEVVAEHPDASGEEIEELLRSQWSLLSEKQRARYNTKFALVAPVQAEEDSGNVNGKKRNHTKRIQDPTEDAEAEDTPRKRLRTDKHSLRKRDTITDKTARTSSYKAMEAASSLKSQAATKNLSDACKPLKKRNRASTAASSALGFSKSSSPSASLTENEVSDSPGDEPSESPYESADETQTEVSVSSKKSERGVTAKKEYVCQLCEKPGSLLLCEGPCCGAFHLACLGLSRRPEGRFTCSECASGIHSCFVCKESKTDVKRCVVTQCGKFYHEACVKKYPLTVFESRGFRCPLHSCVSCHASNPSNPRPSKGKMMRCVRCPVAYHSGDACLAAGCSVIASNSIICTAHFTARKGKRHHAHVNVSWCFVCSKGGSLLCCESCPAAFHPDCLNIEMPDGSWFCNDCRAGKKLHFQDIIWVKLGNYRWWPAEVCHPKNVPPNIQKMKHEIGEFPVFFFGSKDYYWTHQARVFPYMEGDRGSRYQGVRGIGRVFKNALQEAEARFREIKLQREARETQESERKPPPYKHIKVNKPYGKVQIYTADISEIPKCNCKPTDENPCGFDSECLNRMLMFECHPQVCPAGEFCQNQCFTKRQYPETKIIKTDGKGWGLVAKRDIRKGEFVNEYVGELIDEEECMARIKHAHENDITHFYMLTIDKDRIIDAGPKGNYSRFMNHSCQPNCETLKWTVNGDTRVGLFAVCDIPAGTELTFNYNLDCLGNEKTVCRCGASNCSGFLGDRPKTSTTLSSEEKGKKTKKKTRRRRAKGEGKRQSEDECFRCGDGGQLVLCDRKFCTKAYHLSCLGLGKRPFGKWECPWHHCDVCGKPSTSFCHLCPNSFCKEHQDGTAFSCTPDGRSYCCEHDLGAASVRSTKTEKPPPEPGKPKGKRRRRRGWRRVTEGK

[7] = target: G-protein coupled receptor 55 (Homo sapiens, UniProt Q9Y2T6); assay: GPR55 antagonists blocking LPI-driven arrestin recruitment, primary screen, imaging, U2OS, beta-arrestin-GFP, LPI agonist (AID 2013); assay type: functional;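 note: antagonist potency measured as reduced agonist-driven arrestin aggregation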
[8] = target: Potassium voltage-gated channel subfamily KQT member 2 (Rattus norvegicus, UniProt O88943); assay: KCNQ2 potassium channel inhibitors, dose response, cell-based, automated electrophysiology, set II, rat KCNQ2 (AID 588637); assay type: functional
[9] = inhibitors of intracellular T. cruzi replication, confirmation, NIH3T3 host cells, beta-gal luminescence (AID 2044); assay type: functional, cell-based;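 note: intracellular parasites grown in NIH/3T3 mouse fibroblasts as host cells; luminescent beta-galactosidase reporter signal from transgenic T. cruzi replicating inside host cells; inhibitors lower the luminescence signal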
[10] = target: T3, Microphthalmia-associated transcription factor (Homo sapiens, UniProt O75030); assay: TRPM1 promoter luciferase signal decrease, dose response, MITF inhibitor project, cell-based, SK-MEL-5, cherry-picked, set 3 (AID 493073); assay type: functional
T3 sequence (O75030 whole entry): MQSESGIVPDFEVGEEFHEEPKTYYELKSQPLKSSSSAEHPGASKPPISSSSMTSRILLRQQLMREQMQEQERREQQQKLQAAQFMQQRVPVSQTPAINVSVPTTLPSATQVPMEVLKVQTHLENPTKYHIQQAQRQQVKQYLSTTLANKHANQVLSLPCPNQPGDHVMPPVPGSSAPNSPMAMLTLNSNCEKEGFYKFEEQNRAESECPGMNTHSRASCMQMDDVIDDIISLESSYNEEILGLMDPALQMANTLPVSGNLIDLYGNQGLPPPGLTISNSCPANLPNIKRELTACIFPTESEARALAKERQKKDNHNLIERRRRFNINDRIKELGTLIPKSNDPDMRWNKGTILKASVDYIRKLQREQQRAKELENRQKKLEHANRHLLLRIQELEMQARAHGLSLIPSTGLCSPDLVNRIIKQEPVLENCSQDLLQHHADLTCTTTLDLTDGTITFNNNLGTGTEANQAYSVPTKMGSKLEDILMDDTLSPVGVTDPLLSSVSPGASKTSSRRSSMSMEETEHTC

INS1 = assay: beta cell apoptosis inhibitors, cytokine rescue, dose response, luminescence, retest (AID 449756); assay type: functional, cell-based; conditions: Rattus norvegicus;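 note: cell death triggered by IL-1 beta plus TNF-alpha plus IFN-gamma mixture; protective hits raise ATP signal compared with cytokine alone wells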
A-375 = assay: A375 melanoma cell viability reduction, dose response, counter-screen for MITF modulator project, cherry-pick samples, set 2 (AID 540335); assay type: functional, cell-based; conditions: Homo sapiens
[11] = target: DNA (cytosine-5)-methyltransferase 1 (Homo sapiens, UniProt P26358); assay: DNMT1 methyltransferase inhibitors, confirmation, biochemical, fluorescent molecular beacon (AID 602386); assay type: functional
[12] = target: 26S proteasome non-ATPase regulatory subunit 14 (Homo sapiens, UniProt O00487); assay: inhibition of proteasome subunit RPN11 – biochemical, fluorescence polarization, uHTS hits, confirmation (AID 602368); assay type: functional
[13] = target: 72 kDa type IV collagenase (Homo sapiens, UniProt P08253); assay: Dose Response validation of uHTS RPN11 inhibitor hits using a MMP-2 Fluorescence assay.; assay type: functional
Prothrombin = Prothrombin (Bos taurus, UniProt P00735); assay: thrombin inhibition, dose response, biochemical, fluorescence polarization, uHTS hits (AID 602369); assay type: functional
[14] = target: T4, DNA repair protein RAD52 homolog (Homo sapiens, UniProt P43351); assay type: functional, biochemical
T4 sequence (P43351 whole entry): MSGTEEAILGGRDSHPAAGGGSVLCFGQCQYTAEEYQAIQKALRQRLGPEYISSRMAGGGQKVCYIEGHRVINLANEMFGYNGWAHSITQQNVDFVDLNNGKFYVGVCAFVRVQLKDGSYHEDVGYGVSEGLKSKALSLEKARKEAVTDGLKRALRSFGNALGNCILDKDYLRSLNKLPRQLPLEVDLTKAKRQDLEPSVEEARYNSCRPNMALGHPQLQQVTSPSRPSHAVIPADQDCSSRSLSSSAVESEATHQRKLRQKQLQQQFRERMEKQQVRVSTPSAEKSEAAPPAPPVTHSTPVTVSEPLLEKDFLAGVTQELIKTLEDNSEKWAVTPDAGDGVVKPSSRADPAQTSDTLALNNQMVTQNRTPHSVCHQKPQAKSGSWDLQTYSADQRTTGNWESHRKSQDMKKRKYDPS

[15] = target: T5, Oxysterols receptor LXR-beta (Homo sapiens, UniProt P55055); assay type: functional, cell-based;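 note: Cell-based luminescence dose-response assay of agonist activity at LXR, run as a confirmatory counterscreen to a daf-12 agonist screen; HEK293 cells with Gal4-LXR fusion and GAL4-driven luciferase reporter; agonist potency from rising luciferase signal of a Gal4-LXR reporter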
T5 sequence (P55055 whole entry): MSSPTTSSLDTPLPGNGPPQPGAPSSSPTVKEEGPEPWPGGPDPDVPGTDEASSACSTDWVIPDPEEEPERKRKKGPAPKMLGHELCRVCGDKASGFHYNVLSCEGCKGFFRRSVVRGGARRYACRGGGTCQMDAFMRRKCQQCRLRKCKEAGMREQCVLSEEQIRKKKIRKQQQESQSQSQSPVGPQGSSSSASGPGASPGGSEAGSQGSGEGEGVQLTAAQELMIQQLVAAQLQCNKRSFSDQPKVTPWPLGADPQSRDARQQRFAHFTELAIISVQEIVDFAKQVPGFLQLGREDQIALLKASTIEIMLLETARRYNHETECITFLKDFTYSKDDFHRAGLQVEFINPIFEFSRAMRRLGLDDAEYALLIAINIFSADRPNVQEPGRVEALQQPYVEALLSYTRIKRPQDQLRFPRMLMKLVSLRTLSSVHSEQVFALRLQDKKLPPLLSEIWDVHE

HEK293 [16] = assay: cells; conditions: Homo sapiens
HEK293 [17] = assay: cells; conditions: Homo sapiens; remark: listed apart in the source
cells [18] = assay: cells
[19] = target: Adenosylmethionine-8-amino-7-oxononanoate aminotransferase (Mycobacterium tuberculosis, UniProt P9WQ81); assay: Mycobacterium tuberculosis BioA enzyme inhibitor Measured in Biochemical System Using Plate Reader - 2163-02_Inhibitor_Dose_CherryPick_Activity.; assay type: functional, Mycobacterium tuberculosis UT205
[20] = target: T6, Low molecular weight phosphotyrosine protein phosphatase (Homo sapiens, UniProt P24666); assay type: functional; conditions: read-out: IC50_Mean
T6 sequence (P24666 whole entry): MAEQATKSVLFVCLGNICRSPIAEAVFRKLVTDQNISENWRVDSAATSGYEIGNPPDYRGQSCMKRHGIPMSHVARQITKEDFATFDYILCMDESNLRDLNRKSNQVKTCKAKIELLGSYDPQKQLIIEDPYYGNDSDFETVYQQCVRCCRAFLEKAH

[21] = target: T6, Low molecular weight phosphotyrosine protein phosphatase; assay type: functional; conditions: read-out: IC50_Mean; remark: listed apart in the source

Chain of Ras and Rab interactor 1/Tyrosine-protein kinase ABL1 (P00519 whole entry): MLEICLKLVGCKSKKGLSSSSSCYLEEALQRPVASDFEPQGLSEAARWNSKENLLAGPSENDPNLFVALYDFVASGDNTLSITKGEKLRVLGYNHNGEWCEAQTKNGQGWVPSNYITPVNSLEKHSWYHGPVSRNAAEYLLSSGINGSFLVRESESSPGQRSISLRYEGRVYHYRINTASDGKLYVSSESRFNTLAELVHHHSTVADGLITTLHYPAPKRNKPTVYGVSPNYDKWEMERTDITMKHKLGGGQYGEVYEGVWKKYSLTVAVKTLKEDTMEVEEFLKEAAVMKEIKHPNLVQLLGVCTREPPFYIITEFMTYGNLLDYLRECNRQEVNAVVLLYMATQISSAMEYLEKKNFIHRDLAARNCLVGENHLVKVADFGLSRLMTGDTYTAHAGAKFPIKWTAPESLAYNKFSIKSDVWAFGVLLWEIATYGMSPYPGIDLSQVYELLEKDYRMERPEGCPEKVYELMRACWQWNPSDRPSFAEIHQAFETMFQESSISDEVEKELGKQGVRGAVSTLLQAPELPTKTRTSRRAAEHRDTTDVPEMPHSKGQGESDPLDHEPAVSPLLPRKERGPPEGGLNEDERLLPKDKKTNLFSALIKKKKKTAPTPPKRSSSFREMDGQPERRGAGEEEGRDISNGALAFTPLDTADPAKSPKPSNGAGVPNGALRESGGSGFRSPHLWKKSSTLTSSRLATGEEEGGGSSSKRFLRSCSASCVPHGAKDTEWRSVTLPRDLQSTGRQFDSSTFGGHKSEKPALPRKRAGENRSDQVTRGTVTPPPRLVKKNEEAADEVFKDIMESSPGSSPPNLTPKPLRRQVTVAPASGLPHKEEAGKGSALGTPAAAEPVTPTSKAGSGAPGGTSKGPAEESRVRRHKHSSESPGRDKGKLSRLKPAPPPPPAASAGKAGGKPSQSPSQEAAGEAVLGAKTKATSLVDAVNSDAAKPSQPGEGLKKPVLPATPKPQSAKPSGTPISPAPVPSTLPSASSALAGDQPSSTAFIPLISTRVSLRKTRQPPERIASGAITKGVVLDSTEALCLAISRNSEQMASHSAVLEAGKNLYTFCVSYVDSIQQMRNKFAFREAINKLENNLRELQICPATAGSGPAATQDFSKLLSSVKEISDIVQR
Chain of Ras and Rab interactor 1/Tyrosine-protein kinase ABL1 (Q13671 whole entry): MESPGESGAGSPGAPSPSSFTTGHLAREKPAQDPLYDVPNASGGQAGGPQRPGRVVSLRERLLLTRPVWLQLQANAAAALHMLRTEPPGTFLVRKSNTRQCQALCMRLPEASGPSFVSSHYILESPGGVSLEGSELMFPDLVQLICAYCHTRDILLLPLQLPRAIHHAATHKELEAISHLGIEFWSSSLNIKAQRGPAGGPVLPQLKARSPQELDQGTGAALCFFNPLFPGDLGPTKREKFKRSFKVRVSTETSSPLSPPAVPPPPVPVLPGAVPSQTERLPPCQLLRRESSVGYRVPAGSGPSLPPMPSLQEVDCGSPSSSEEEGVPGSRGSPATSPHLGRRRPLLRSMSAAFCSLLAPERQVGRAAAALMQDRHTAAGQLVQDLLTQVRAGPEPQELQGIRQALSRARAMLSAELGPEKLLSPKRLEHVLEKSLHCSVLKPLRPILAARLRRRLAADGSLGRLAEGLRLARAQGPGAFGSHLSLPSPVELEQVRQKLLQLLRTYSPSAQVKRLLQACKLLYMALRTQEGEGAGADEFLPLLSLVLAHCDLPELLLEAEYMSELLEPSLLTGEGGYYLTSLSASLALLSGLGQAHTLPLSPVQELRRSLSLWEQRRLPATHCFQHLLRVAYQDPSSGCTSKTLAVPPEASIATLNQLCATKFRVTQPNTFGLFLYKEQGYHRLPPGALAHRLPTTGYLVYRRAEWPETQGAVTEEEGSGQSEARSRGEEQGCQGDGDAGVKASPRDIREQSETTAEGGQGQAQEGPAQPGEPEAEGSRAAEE
Chain of Potassium voltage-gated channel subfamily KQT member 2 (O88943 whole entry): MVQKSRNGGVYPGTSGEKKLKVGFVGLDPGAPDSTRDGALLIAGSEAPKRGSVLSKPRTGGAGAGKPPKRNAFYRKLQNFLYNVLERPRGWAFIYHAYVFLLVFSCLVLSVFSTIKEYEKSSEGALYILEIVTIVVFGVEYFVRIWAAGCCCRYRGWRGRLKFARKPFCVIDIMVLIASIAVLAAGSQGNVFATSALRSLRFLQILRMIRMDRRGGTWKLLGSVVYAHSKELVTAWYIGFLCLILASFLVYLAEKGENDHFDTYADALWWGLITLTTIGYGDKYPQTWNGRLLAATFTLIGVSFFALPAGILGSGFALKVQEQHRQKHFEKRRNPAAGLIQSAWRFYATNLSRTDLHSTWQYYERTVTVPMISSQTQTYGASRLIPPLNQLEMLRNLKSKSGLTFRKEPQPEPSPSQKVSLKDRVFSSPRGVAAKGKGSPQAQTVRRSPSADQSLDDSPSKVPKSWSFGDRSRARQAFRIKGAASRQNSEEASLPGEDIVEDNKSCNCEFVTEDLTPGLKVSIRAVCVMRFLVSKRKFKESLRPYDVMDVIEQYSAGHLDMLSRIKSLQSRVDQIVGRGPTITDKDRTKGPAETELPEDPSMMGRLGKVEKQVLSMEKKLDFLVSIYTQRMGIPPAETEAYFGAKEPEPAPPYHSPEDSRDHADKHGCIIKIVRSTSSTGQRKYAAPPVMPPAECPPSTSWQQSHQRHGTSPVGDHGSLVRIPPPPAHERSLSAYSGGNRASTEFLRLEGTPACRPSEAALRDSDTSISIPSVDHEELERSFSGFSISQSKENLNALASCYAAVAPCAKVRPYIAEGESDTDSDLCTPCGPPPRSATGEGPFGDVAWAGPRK
Chain of 72 kDa type IV collagenase (P08253 whole entry): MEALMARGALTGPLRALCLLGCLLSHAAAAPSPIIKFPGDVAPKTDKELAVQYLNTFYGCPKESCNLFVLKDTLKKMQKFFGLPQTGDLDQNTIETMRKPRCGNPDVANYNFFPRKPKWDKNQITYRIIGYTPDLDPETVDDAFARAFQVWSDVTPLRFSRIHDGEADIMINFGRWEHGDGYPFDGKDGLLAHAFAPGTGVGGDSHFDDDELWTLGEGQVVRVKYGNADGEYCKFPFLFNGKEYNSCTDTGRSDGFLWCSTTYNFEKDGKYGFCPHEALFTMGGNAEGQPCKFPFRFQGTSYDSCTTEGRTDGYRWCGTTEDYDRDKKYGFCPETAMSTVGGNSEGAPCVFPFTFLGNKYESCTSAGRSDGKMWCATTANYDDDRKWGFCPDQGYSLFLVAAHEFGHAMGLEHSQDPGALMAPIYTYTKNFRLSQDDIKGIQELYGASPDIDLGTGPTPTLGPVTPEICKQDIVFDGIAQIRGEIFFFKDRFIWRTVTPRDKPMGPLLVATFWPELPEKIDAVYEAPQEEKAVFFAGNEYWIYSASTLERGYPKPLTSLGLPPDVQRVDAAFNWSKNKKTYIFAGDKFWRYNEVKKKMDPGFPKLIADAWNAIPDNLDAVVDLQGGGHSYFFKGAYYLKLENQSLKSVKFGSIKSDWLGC
Chain of Nonstructural protein 1 (Q194T2 whole entry): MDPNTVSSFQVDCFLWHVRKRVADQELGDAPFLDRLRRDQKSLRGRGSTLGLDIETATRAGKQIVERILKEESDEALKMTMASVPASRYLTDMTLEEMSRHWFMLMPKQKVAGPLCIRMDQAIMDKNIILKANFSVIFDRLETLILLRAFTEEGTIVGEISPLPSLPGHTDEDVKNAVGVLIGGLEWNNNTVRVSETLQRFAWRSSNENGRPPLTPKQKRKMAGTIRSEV
Chain of Adenosylmethionine-8-amino-7-oxononanoate aminotransferase (P9WQ81 whole entry): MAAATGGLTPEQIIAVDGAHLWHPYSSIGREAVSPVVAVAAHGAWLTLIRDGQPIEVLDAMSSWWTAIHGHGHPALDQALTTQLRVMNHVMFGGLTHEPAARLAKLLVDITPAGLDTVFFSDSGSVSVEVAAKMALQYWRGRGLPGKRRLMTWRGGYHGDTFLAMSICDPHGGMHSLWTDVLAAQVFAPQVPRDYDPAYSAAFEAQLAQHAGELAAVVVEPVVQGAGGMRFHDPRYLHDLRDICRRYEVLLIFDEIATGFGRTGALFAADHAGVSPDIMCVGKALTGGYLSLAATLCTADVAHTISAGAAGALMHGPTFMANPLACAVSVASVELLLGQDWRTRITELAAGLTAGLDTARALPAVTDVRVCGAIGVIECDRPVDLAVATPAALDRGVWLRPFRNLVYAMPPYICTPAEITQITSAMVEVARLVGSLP
Chain of 26S proteasome non-ATPase regulatory subunit 14 (O00487 whole entry): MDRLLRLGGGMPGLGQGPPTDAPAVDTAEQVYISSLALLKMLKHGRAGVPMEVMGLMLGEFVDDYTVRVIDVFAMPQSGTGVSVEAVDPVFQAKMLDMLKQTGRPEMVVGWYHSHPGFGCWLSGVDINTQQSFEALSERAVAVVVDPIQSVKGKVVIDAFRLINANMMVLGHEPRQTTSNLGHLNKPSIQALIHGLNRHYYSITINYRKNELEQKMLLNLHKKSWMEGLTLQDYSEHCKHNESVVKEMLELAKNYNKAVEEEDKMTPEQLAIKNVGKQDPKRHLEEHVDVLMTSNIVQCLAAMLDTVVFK
Chain of G-protein coupled receptor 55 (Q9Y2T6 whole entry): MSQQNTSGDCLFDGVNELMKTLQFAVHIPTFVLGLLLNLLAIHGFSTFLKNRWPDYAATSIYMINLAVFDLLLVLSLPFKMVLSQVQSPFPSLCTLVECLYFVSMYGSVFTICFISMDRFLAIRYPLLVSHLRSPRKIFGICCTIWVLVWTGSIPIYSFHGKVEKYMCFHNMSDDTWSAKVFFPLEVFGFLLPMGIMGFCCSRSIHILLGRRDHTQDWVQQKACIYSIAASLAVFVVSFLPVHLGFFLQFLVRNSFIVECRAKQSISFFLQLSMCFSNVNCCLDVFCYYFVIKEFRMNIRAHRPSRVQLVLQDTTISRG

For `CCOC(=O)COn1c2c(c3c4no[n+]([O-])c4ccc31)CCCC2`, the IC50 (cells [1]) was 5.49 µM (active) and the CC50 [2] was > 100 µM (active).

With `Cc1[nH]c(=O)[nH]c1C(=O)CCCCC(=O)O` the IC50 (Nonstructural protein 1) was 2.14 µM (active), the EC50 (Insulin-degrading enzyme [3]) was 16.9 µM (inactive) and the EC50 (Insulin-degrading enzyme [4]) was 12.2 µM (inactive). For the same molecule, the IC50 [5] was 0.0174 µM (active) and the AC50 [6] was 10.2 µM (active).

With `COc1ccc(Cl)cc1C(=O)NC(=S)Nc1ccccc1N1CCOCC1` the IC50 [7] was 0.825 µM (active) and the IC50 [8] was 5.98 µM (active).

With `Cc1cc(C)c2c(N)c3cccc(C)c3nc2n1` the EC50 [9] was 1.27 µM (active), the AC50 [10] was 3.21 µM (active) and the AC50 (INS1) was 1.62 µM (active). The AC50 (A-375) was 3.39 µM (active), the IC50 [11] was > 99 µM (inactive) and the IC50 [12] was 13.1 µM (active). The IC50 [13] was > 100 µM (inactive), the IC50 (Prothrombin) was > 100 µM (inactive) and the AC50 [14] was 2.24 µM (active). The EC50 [15] was > 67.5 µM (inactive), the EC50 (HEK293 [16]) was > 2.21 µM (active) and the EC50 (HEK293 [17]) was > 59.6 µM (inactive). For the same molecule, the EC50 (cells [18]) was > 67.5 µM (inactive).

With `CCCC(=O)Nc1cccc(NC(=O)c2ccc(C)c([N+](=O)[O-])c2)c1` the AC50 [19] was 1.96 µM (active).

With `Oc1c(/C=N/c2ccc(Cl)cc2)cnn1-c1cccc(Cl)n1` the IC50 [20] was 15.4 µM (active) and the IC50 [21] was 17.1 µM (active).
